{"source": "patent US20160101076A1", "about": "“Use of Sumoylation Inhibitors for Treating Cancer” (priority 2013, published 2016)", "key": {"[1]": {"tested_on": "undifferentiated thyroid cell line 8505c", "assay": "CD44 Western blot in 8505c thyroid carcinoma", "type": "cell-based", "conditions": "96 h treatment, FIG. 19", "experimental": "FIG. 19: Western blot, CD44 downregulation, 8505c thyroid carcinoma was treated with ginkgolic and anacardic acids, 96 h.\n(§1) Similar downregulation of stem cell marker CD44 was determined in pancreatic carcinoma Panc-1 cell line (FIG. 18) and undifferentiated thyroid cell line 8505c (FIG. 19) after 96 h treatment with SUMO inhibitors anacardic and ginkgolic acids. • Woodfield, G. W., Horan, A. D., Chen, Y. & Weigel, R. J. TFAP2C controls hormone response in breast cancer cells through multiple pathways of estrogen signaling. Cancer Res 67, 8439-8443 (2007). • Woodfield, G. W., Chen, Y., Bair, T. B., Domann, F. E. & Weigel, R. J. Identification of primary gene targets of TFAP2C in hormone responsive breast carcinoma cells. Genes Chromosomes Cancer 49, 948-962, doi:10.1002/gcc.20807 (2010). • Tan, S. K. et al. AP-2gamma regulates oestrogen receptor-mediated longrange chromatin interaction and gene transcription. Embo J 30, 2569-2581, doi:10.1038/emboj.2011.151 (2011). • Sorlie, T. et al. Gene expression patterns of breast carcinomas distinguish tumor subclasses with clinical implications. Proc Natl Acad Sci USA 98, 10869-10874. (2001). • Kao, J. et al. Molecular profiling of breast cancer cell lines defines relevant tumor models and provides a resource for cancer gene discovery. […]"}, "[2]": {"tested_on": "pancreatic carcinoma Panc-1 cell line", "assay": "CD44 Western blot in Panc-1 pancreatic carcinoma", "type": "cell-based", "conditions": "Panc-1, 96 h treatment; FIG. 18", "experimental": "FIG. 18: Western blot, CD44 downregulation, Panc-1 pancreatic carcinoma was treated with ginkgolic and anacardic acids, 96 h.\nas §1"}, "sKD-C cells": {"tested_on": "sKD-C cells", "assay": "Gene/protein expression and CD44+/CD24-/low FACS in sKD-C cells treated with sumoylation inhibitors", "type": "cell-based, human", "conditions": "for CD44+/CD24-/low population by FACS analysis / CD44 expression by Western blot: s-KD-C cells, FIG. 6A; for ability to repress CD44 expression with knockdown of TFAP2A: TFAP2A siRNA, Western blot FIG. 6B", "experimental": "The human breast cancer cell lines (MCF-7, SKBR-3, BT-20, BT-549, MCF-10A) were obtained from American Type Culture Collection. sKD-C cells were subcloned from parental MCF-7 cells with stable knockdown of TFAP2C as described (Cyr et al., 2014). ER<-positive tumors and the basal cancer tumor were obtained from surgical resection specimens. Cell suspensions were prepared with gentle collagenase/hyaluronidase (Stemcells) (Ponti et al., 2005). A new cell line was established from the basal tumor cells, called IOWA-1T (manuscript in preparation).\nTotal RNA was isolated and analyzed as previously described. Expression values were normalized to the mean of 18S rRNA 4319413E-0803037 (Applied Biosystems) as endogenous control.\nWestern blots were performed as previously described (Cyr et al., 2014; Kulak et al., 2013). For immunoprecipitations anti-TFAP2A, anti-GFP antibody (Life Technologies) or IgG (#sc-2025, Santa Cruz Biotechnology) were cross-linked with Dynabeads protein A (Life Technologies). MCF7 protein was incubated with Dynabeads protein A-Abs complex, protein complexes were washed with DPBS (Gibco) with 0.01% Tween (Research Products International Corp.), and eluted with SDS loading buffer.\nCells were plated ([…]/10 cm2) and treated with 10 μM gingolic or anacardic acid (Sigma) for 2-4 days and collected for qPCR, Western blot and FACS analysis.\nFACS analysis was performed as previously described (Roederer and Hardy, 2001)."}, "[3]": {"conditions": "sKD-C cells, compared to vehicle treatment, mRNA and protein (FIG. 5E), 10 μM, 2-4 days"}}}
{"smiles": "CCCCCCCCCCCCCCCc1cccc(O)c1C(=O)O", "note": "[AA, Anacardic acid (C15:0)]", "values": [{"measurement": "stem cell marker CD44 (Western blot)", "setting": "[1]", "value": "downregulation"}, {"measurement": "stem cell marker CD44 (Western blot)", "setting": "[2]", "value": "downregulation"}, {"measurement": "CD44+/CD24-/low population by FACS analysis", "setting": "sKD-C cells; 10 μM, 2-4 days", "value": "significantly reduced"}, {"measurement": "CD44 expression by Western blot", "setting": "sKD-C cells; 10 μM, 2-4 days", "value": "inhibited"}, {"measurement": "ability to repress CD44 expression with knockdown of TFAP2A", "setting": "sKD-C cells; sKD-C cells", "value": "completely eliminated"}]}
{"smiles": "CCCCCC/C=C\\CCCCCCCc1cccc(O)c1C(=O)O", "note": "[GA, (Z)-6-(Pentadec-8-enyl)-2-hydroxybenzoic acid]", "values": [{"measurement": "stem cell marker CD44 (Western blot)", "setting": "[1]", "value": "downregulation"}, {"measurement": "stem cell marker CD44 (Western blot)", "setting": "[2]", "value": "downregulation"}, {"measurement": "CD44+/CD24-/low population by FACS analysis", "setting": "sKD-C cells; 10 μM, 2-4 days", "value": "significantly reduced"}, {"measurement": "CD44 expression by Western blot", "setting": "sKD-C cells; 10 μM, 2-4 days", "value": "inhibited"}, {"measurement": "ability to repress CD44 expression with knockdown of TFAP2A", "setting": "sKD-C cells; sKD-C cells", "value": "completely eliminated"}, {"measurement": "TFAP2C expression", "setting": "sKD-C cells; sKD-C cells, compared to vehicle treatment, FIG. 5E", "value": "without altering"}, {"measurement": "FREM2 expression", "setting": "sKD-C cells; sKD-C cells, compared to vehicle treatment, FIG. 5E, 10 μM, 2-4 days", "value": "induced"}, {"measurement": "CD44 expression", "setting": "sKD-C cells; [3]", "value": "repressed"}, {"measurement": "ERα expression", "setting": "sKD-C cells; [3]", "value": "induced"}]}
